Data on 7 compounds can be found in PMC8400343, “Synthesis and Evaluation of the Antidepressant-like Properties of HBK-10, a Novel 2-Methoxyphenylpiperazine Derivative Targeting the 5-HT1A and D2 Receptors” (Pharmaceuticals, 2021).

SMILES strings stand for the structures. Counter-ions that a name gives are not always drawn. Like-named read-outs stand apart in the source and are kept apart here. Marks after values point to notes of the source that are not given here.

For series [1] the following is noted: MLMs, cited from earlier work; for % Remaining after 30 min: protein concentration 0.5.
For series [2], the target named is voltage-sensitive calcium channels (Cav). Also on record: method as in PMID 10073136. The note with it: read-out: Ki Cav [3H]-nitrendipine; cited from earlier work.
In series [3] the test system is mice. The settings on record: i.p.; cited from earlier work.
Series [4] concerns mice. The note with it: i.p.; cited from earlier work. This is another data set of the same source.
In series [5] the test system is corticosterone-treated mice. Put plainly: Locomotor activity in corticosterone-treated mice. Type of series: in vivo, mouse. The note with it: 15 mg/kg ip chronic, 4 min. How it is done:
The locomotor activity of mice was measured as previously described. We used photoresistor actometers (Ugo Basile, Italy) connected to a counter for the recording of light-beam interruptions. Mice were placed individually in cages for 30 min, and the number of crossings of the light beams was recorded as the locomotor activity for 4 min.
(§1) Mice were injected with corticosterone (sc, 20 mg/kg) at random times during the light phase for 21 days. The dose and route of administration of corticosterone were based on our previous study. Control mice received saline containing 0.1% dimethyl sulfoxide (DMSO) and 0.1% Tween (sc). For the next 21 days, 30 min before the corticosterone injection, mice were injected with saline, HBK-10 (0.625 or 1.25 mg/kg), or fluoxetine (15 mg/kg) (ip). Twenty-four hours after the last injection, animals were tested in the forced swim test and locomotor activity test (Figure 8).

The test system of series [6] is corticosterone-treated mice. Put plainly: Forced swim test in corticosterone-induced mouse model of depression. The settings on record: fluoxetine 15 mg/kg ip, chronic (3 weeks). The class given is in vivo. The method, then:
(§2) The experiment was performed on mice according to the method described by Porsolt et al. and as previously described. Mice were placed individually in glass cylinders (height 25 cm, diameter 10 cm) filled with water at 24 ± 1 °C to a depth of 10 cm and left there for 6 min. Following a 2 min habituation period, total time spent immobile was recorded during the next 4 min. The animal was considered as immobile when it remained floating passively in the water, making only small movements to keep its head above the water. The experiments were video-recorded and scored using elevenmaze.com software by a trained observer blind to the treatments.
as §1

Series [7] has as its system mice. Put plainly: Forced swim test in naive mice. Type of series: in vivo, mouse. The note with it: alone. The method, then: Adult male Albino-Swiss mice (CD-1, 8 weeks old, 18–21g: Jagiellonian University Medical College, Krakow, Poland) were used in all experiments. Unless stated otherwise, the animals were kept in groups of 10 mice in standard cages (37 cm × 21 cm × 15 cm) at a room temperature (22 ± 2 °C), on a 12 h light/dark cycle (lights on 7:00) with ad libitum access to food and water. Mice were used only once in each test. Behavioral experiments were performed between 8 am and 4 pm and evaluated by a trained observer blind to the treatments. Mice were handled for 1 week before starting the experimental procedures. Animals were randomly allocated to the treatment using a computer-generated sequence, and researchers making measurements on the animals or analyzing the results were blind to the allocation. Moreover, experimental groups were distributed across multiple cages, and the location of the mouse cages in the room was changed following each day.
HBK-10, WAY-100635 (Sigma, Darmstadt, Germany), p-chlorophenylalanine (pCPA; Sigma, Darmstadt, Germany), fluoxetine (Sigma, Darmstadt, Germany), reboxetine (Sigma, Darmstadt, Germany) and bupropion (Sigma, Darmstadt, Germany), were suspended in 1% Tween, and administered ip at a volume of 10 mL/kg 30 min before each behavioral test. The control groups received saline ip 30 min prior to testing. The doses of fluoxetine, reboxetine and bupropion as well as WAY-100635 and pCPA were based on our previous studies with 2-methoxyphenylpiperazine derivatives.
as §2
To assess the involvement of a serotonergic system in the antidepressant-like activity of tested compounds in the forced swim test, the mice were pretreated with pCPA (tryptophan hydroxylase inhibitor) according to the method previously described. […]. Twenty-four hours after the last pCPA administration, we injected mice with 1% Tween ip or tested compound. We performed the forced swim test 30 min after the administration.
The putative involvement of 5-HT1A receptors in the antidepressant-like effect of tested compound was studied using WAY-100635 (a selective 5-HT1A receptor antagonist). WAY-100635 at a dose of 0.1 mg/kg was administered sc 15 min prior to the injection of HBK-10. After 30 min the forced swim test was performed. The behaviorally ineffective dose of WAY-100635 used in the experiments was based on our previous experiments.

The next series deals with serotonin level. Also on record: method as in PMID 9044239. The settings on record: 3-day treatment with pCPA; cited from earlier work.
A further series has as its target 5-HT2A. Also on record: method as in PMID 10073136. The settings on record: cited from earlier work.
For a further series, the target named is α1-adrenoceptor. The arrangement: method as in PMID 10073136. The settings on record: cited from earlier work.
For the next series, the target named is 5-HT1A. The arrangement: method as in PMID 10073136. The note with it: cited from earlier work.

With `O=C1CCc2ccc(OCCCCN3CCN(c4cccc(Cl)c4Cl)CC3)cc2N1` [Aripiprazole], the t1/2 in series [1] (protein concentration 1.0) is 217 ^b min.
With `CC[C@@H](CO)NCCOc1c(C)cccc1C` [Compd. II, (S)-{2-[(2-(2,6-dimethylphenoxy)ethyl]amino}butan-1-ol hydrochloride], the Ki – broadly, a measure of affinity in units of concentration, obtained from inhibition or displacement – in [2] is 18000 nM. Also, in the series on mice [3], the “Rotarod test TD50” value was 34.45 mg/kg. Moreover, in the series with mice [4], the “MES ED50” value is given as 7.57 mg/kg.
Take `CNCCC(Oc1ccc(C(F)(F)F)cc1)c1ccccc1` (stereo not drawn) [Fluoxetine, reference compound]: in series [5], the “Number of Crossings ± SEM” value amounted to 462.5 ± 41.81. In series [6], the “Decrease of immobility in the forced swim test in corticosterone-treated mice” value turned out to be 32%.
Regarding `N[C@@H](Cc1ccc(Cl)cc1)C(=O)O` (racemic) [pCPA, p-chlorophenylalanine], the “Effect on immobility in the forced swim test” value with mice [7] (pCPA 200 mg/kg ip once daily for three days) is “had no effect on the immobility”. Further, in the series on serotonin level, the “Reduction of serotonin level in midbrain” value is 24% and the “Reduction of serotonin level in the cortical regions” value was “around 30%”.
Take `COc1ccccc1N1CCN(CCCOc2c(C)cccc2C)CC1` [Compd. I, 1-[3-(2,6-dimethylphenoxy)propyl]-4-(2-methoxyphenyl)piperazine hydrochloride]: the figures for the Ki on 5-HT2A, on α1-adrenoceptor and at 5-HT1A were 192 nM, 2.1 nM and 4.9 nM, respectively.
Take `COc1ccccc1N1CCN(CCN(C(=O)C2CCCCC2)c2ccccn2)CC1` [WAY-100635, reference compound]: the “Effect on immobility in the forced swim test” value in the series on mice [7] (WAY-100635 0.1 mg/kg sc) was “had no effect on the immobility”.
Take `O=C1CC2(CCCC2)CC(=O)N1CCCCN1CCN(c2ncccn2)CC1` [Buspirone]: the entries for the “% Remaining after 30 min” value in series [1] and in [1] (listed as buspirone) were 0.29 ^a % and “lower than 1%”, respectively.
